Patent US7718613B2, “Armed peptides” (priority 2001, dated 2010)
The star is where a group is joined. Myristoyl = CCCCCCCCCCCCCC(=O)*

Columns and labels:
[1] = test system: KHT tumour; assay: Ex vivo release of calcein in tumour slices after i.v. peptide liposome complex; set-up: species or system C3H mice; conditions: 200 μl complex i.v., tumours excised 3 hrs post inoculum, buffer pH 8 changed to pH 5.8; FIG. 11
Description: Liposomes encapsulating Calcein (120 mM) and with label DiI (the dye to lipid ratio was around 100 μg dye: 100 mg PC) were used. C3H syngenic mice 8-10 weeks old weighing 20-25 g were used. Subcutaneous tumour was implanted using KHT cells (5×10^6 cells/animal) on the dorsal side after shaving the mice. Typically 200 μl of peptide liposome complex (100 μl of dual dye liposomes+100 μl of peptide 0.1 mg/ml) were administered intravenously per mice and tumours excised 3 hrs post inoculum. The tumour was removed aseptically and kept in PBS pH 8.0 buffer and thin sections (160 μm-200 μm) were cut on the slicing machine, and examined under a fluorescence microscope. The pH of the buffer was modulated by adding 400 μl of NaP buffer pH 5.8 while simultaneously removing 400 μl of pH 8 buffer. Changes in fluorescence intensity were recorded. The state of liposome peptide complex is then determined, whether intact or lysed by measuring fluorescence in tissue slices before-and after incubation in acidic buffer. The increase in fluorescence in the acidic buffer indicates the quantity of liposomes that were still intact and able to respond at the time of sacrifice.

[2] = Liposome-peptide integral complex: pH-triggered calcein release and stability
Description: A fatty acid incorporated on the N-terminal of peptide anchors the sequence with liposomes to form integral complex which can then be used as single stable reagent that can be triggered to release the contents-of the liposomoes when the pH is ideal (i.e physiological 7.4) or acidic (e.g 6.2). In the first instance we prepared the liposome-peptide complex at a predetermined ratio of lipid-to peptide (30:1) in pH 8 buffer using peptide 10. […] The complex between liposomes and peptide was formed by adding peptide to […] of 10 mM NaP containing 140 mM NaCl, 1 mM EDTA, 5 mM Hepes pH 8 buffer, containing 100 μl of calcein encapsulating liposomes. The mixture was incubated for 20 mins to form the complex prior to use. In order to ascertain that the lysis is occurring due to the formation of complex and not as the action of the peptide per se it was essential to purify the liposome-peptide complex. The peptide to lipid ratio in this complex is 1:30. The complex was applied to a Sepharose CL-6B column. Fractions corresponding to liposomes were collected as clearly visible to the eye. Aliquots of these fractions were then tested for lytic activity at acidic and physiological pH values. The key aim was to establish that the peptide is liposome associated and would thus be eluted with liposome fraction in the void volume. We used 100 μl complex (a column purified fraction) and followed the release of Calcein at two different pH values.
FIG. 8A. […] Upper curve pH 5.8. Lower curve pH 7.4.
2 ml buffer (10 mM Na phosphate, 140 mM NaCl, 1 mM EDTA, 5 mM HEPES)+50 μl purified complex. Lipsomes used were 50 nm extruded. Curves top to bottom are pH 6.2, 6.4, 6.7, 7.0, 7.4
Complex 20 μl liposomes+60 μl pH 8 buffer+20 μl peptide (0.1 mg/ml) prepared and used within 2 minutes. 10 μl was added to each of the cuvettes containing 2 ml buffers. Top curve pH 6.2 (triton was added towards the end indicated by sharp dip in fluorescence to check full lysis), the lower curve is at pH 7.4. Samples measured simultaneously.
5 μL of complex in 2 ml of buffer tested 20 minutes after preparation. Upper curve pH 6.2, Lower curve pH 7.4.
5 μL of complex in 2 ml of buffer tested 5 hrs after preparation. Upper curve pH 6.2 and lower curve pH 7.4.
5 μL of complex in 2 ml of buffer tested 24 hrs after preparation curve pH 6.2, Lower curve pH 7.4.

[3] = Cytolytic activity of pH-responsive peptides on calcein liposomes at different pH; conditions: liposomes 4 μM lipid; 14 nM peptide 2, 20 nM peptide 7, 45 nM peptide 9; FIG. 4
Description: Liposomes encapsulating calcein dye were prepared by an extrusion method (Biochim. Biophys. Acta, 812 (1985) 55). Phophatidylcholine (50 mg) and cholesterol (13.08 mg) which had been dissolved in 4 ml of 50% v/v chloroform methanol solution were evaporated to form a lipid film in a round bottom flask. If it is essential to follow the fate of liposomes a lipohilic-dye such as DiI (50 μg) could be incorporated into the lipid film prior to hydration. The film was then hydrated with 4 ml of 120 mM calcein solution prepared in 10 mM sodium phosphate 20 mM Sodium chloride buffer pH 7.4. Liposomes were formed by 10 extrusion cycles through 0.2 micron or 0.1 um polycarbonate filters using the Liposofast 100 (Avestin) extruder device. The non encapsulated dye was removed by gel filtration on a PD-10 column using iso-osmotic buffer. The total lipid concentration of the liposomes was measured by the Stewart assay and adjusted to 3 mg per ml.
The cytolytic activity of pH-responsive peptides was followed by adding 2 or 3 μl of liposomes to a 2 ml assay volume and continually recording fluorescence. Buffers were made of 10 mM Na phosphate, 140 mM NaCl, 1 mM EDTA, 5 mM HEPES at several different pH values. […] In the experiments 2 ml of 10 mM Na phosphate, 140 mM NaCl, 1 mM EDTA, 5 mM HEPES buffer (at pH values indicated on the figure) containing liposomes (4 μM lipid) and (A) 14 nM peptide 2, (B) 20 nM peptide 7 (C) 45 nM peptide 9. In all cases peptides were added indicated by sharp dip in fluorescence were used. The pH values are as indicated for each trace. […] In general, it is well documented that many proteins including receptors, enzymes and antibodies has pH optimum usually closer to physiological value. On either side of the pH optimum the binding activity is reduced. However in general as activity profile is typically bell shape most proteins would tolerate at least a pH unit shift from optimum. Obviously the closer the results are to pH 7.4 the higher chances their are for efficient binding with target proteins or receptors.

With “Myr-WEAALAEALAEALAEHLARALAEALEALAA-Amide (Myristoyl-WEAALAEALAEALAEHLARALAEALEALAA-NH2; SMILES CCCCCCCCCCCCCC(=O)N[C@@H](Cc1c[nH]c2ccccc12)C(=O)N[C@@H](CCC(=O)O)C(=O)N[C@@H](C)C(=O)N[C@@H](C)C(=O)N[C@@H](CC(C)C)C(=O)N[C@@H](C)C(=O)N[C@@H](CCC(=O)O)C(=O)N[C@@H](C)C(=O)N[C@@H](CC(C)C)C(=O)N[C@@H](C)C(=O)N[C@@H](CCC(=O)O)C(=O)N[C@@H](C)C(=O)N[C@@H](CC(C)C)C(=O)N[C@@H](C)C(=O)N[C@@H](CCC(=O)O)C(=O)N[C@@H](Cc1c[nH]cn1)C(=O)N[C@@H](CC(C)C)C(=O)N[C@@H](C)C(=O)N[C@@H](CCCNC(=N)N)C(=O)N[C@@H](C)C(=O)N[C@@H](CC(C)C)C(=O)N[C@@H](C)C(=O)N[C@@H](CCC(=O)O)C(=O)N[C@@H](C)C(=O)N[C@@H](CC(C)C)C(=O)N[C@@H](CCC(=O)O)C(=O)N[C@@H](C)C(=O)N[C@@H](CC(C)C)C(=O)N[C@@H](C)C(=O)N[C@@H](C)C(N)=O) [peptide 9]” the “release of calcein in tumour slices on acidification” value [1] was “able to trigger release of calcein”, the “stability of the complex” value ([2]; calcein/DiI liposomes, tested 20 minutes, 5 hrs and 24 hrs after preparation, pH 6.2 vs 7.4, FIGS. 8D, E, F) was “retention of the pH triggering of properties” and the “triggering properties of complex after purification” value ([2]; peptide to lipid ratio 1:300, pH 6.2 to 7.4, FIG. 8B) was “triggering properties are retained”. For the same substance, the “pH of triggering (pH profile of calcein release from liposomes)” value [3] was roughly 7 pH.
